Test results published in patent US20250332178A1, “METHODS OF TREATING MYCOBACTERIAL INFECTIONS USING TETRACYCLINE COMPOUNDS” (priority 2018, published 2025).
Like-named read-outs stand apart in the source and are kept apart here.

Assays:
[1] = system: M. arupense; assay: MIC (CLSI broth dilution), slow-growing NTM isolates; type: cell-based; details: isolate 11, Other; read-out: MIC
[2] = system: M. smegmatis group; assay: MIC (CLSI broth dilution), RGM isolates; type: cell-based; details: Mycolicibacterium smegmatis, read-out: MIC
[3] = system: M. abscessus complex; assay: MIC (CLSI broth dilution), RGM isolates; type: cell-based; details: Mycobacteroides abscessus, read-out: MIC
[4] = system: M. simiae; assay: MIC (CLSI broth dilution), slow-growing NTM isolates; type: cell-based; details: read-out: MIC
[5] = system: M. fortuitum group; assay: MIC (CLSI broth dilution), RGM isolates; type: cell-based; details: Mycolicibacterium fortuitum, read-out: MIC
[6] = system: M. chelonae; assay: MIC (CLSI broth dilution), RGM isolates; type: cell-based; details: Mycobacteroides chelonae, read-out: MIC
[7] = system: rapid-growing mycobacteria (RGM) isolates; assay: MIC (CLSI broth dilution), all RGM isolates; type: cell-based, nontuberculous mycobacteria; details: all 50 RGM isolates; for MIC50: read-out: MIC50; for MIC90: read-out: MIC90
[8] = system: M. mucogenium group; assay: MIC (CLSI broth dilution), RGM isolates; type: cell-based; details: read-out: MIC
[9] = system: M. immunogenum group; assay: MIC (CLSI broth dilution), RGM isolates; type: cell-based; details: M. immunogenum, read-out: MIC
[10] = system: M. avium; assay: MIC (CLSI broth dilution), slow-growing NTM isolates; type: cell-based; details: Mycobacterium avium, read-out: MIC
[11] = system: M. chimaera; assay: as above; type: cell-based; details: read-out: MIC
[12] = system: M. intracellulare; assay: as above; type: cell-based; details: Mycobacterium intracellulare, read-out: MIC
[13] = system: slow-growing NTM isolates; assay: MIC (CLSI broth dilution), all slow-growing NTM isolates; type: cell-based, nontuberculous mycobacteria; details: all slow-growing NTM isolates
[14] = isolate 49, M. smegmatis group, M. goodii
[15] = isolate 50, M. smegmatis group, M. wolinskyi
[16] = isolate 1, M. abscessus complex, erm gene type MAB30
[17] = isolate 2, M. abscessus complex, erm gene type MAB30
[18] = isolate 3, M. abscessus complex, erm gene type MAB30
[19] = isolate 4, M. abscessus complex, erm gene type massiliense
[20] = isolate 5, M. abscessus complex, erm gene type massiliense/subsp. abs hybrid
[21] = isolate 6, M. abscessus complex, erm gene type Type 1 abscessus
[22] = isolate 7, M. abscessus complex, erm gene type Type 1 abscessus
[23] = isolate 8, M. abscessus complex, erm gene type Type 1 abscessus
[24] = isolate 9, M. abscessus complex, erm gene type Type 1 abscessus
[25] = isolate 10, M. abscessus complex, erm gene type Type 1 abscessus
[26] = isolate 11, M. abscessus complex, erm gene type Type 6 abscessus
[27] = isolate 12, M. abscessus complex, erm gene type Type 6 abscessus
[28] = isolate 13, M. abscessus complex, erm gene type Type 6 abscessus
[29] = isolate 14, M. abscessus complex, erm gene type Type 6 abscessus
[30] = isolate 15, M. abscessus complex, erm gene type Type 7 abscessus
[31] = isolate 16, M. abscessus complex, erm gene type Type 7 abscessus
[32] = isolate 17, M. abscessus complex, erm gene type Type 8 abscessus
[33] = isolate 23, M. fortuitum group, M. fortuitum
[34] = isolate 24, M. fortuitum group, M. fortuitum
[35] = isolate 25, M. fortuitum group, M. fortuitum
[36] = isolate 26, M. fortuitum group, M. porcinum
[37] = isolate 27, M. fortuitum group, M. porcinum
[38] = isolate 28, M. fortuitum group, M. porcinum/M. boenickei
[39] = isolate 29, M. fortuitum group, M. porcinum/M. boenickei
[40] = isolate 30, M. fortuitum group, M. porcinum/M. boenickei
[41] = isolate 31, M. fortuitum group, M. senegalense
[42] = isolate 32, M. fortuitum group, M. senegalense
[43] = isolate 33, M. fortuitum group, M. senegalense
[44] = isolate 34, M. fortuitum group, M. senegalense
[45] = isolate 39, M. mucogenicum group, M. mucogenicum
[46] = isolate 40, M. mucogenicum group, M. mucogenicum
[47] = isolate 41, M. mucogenicum group, M. mucogenicum
[48] = isolate 42, M. mucogenicum group, M. mucogenicum
[49] = isolate 43, M. mucogenicum group, M. phocaicum
[50] = isolate 44, M. mucogenicum group, M. phocaicum
[51] = isolate 45, M. mucogenicum group, M. phocaicum
[52] = isolate 46, M. mucogenicum group, M. phocaicum
[53] = isolate 47, M. mucogenicum group, M. phocaicum
[54] = isolate 48, M. mucogenicum group, M. phocaicum
[55] = isolate 35, M. immunogenum group
[56] = isolate 36, M. immunogenum group
[57] = isolate 37, M. immunogenum group
[58] = isolate 38, M. immunogenum group

CN(C)c1ccc(O)c2c1C[C@H]1C[C@H]3[C@H](N(C)C)C(O)=C(C(N)=O)C(=O)[C@@]3(O)C(O)=C1C2=O [minocycline]
≤ 1 µg/mL: MIC [8, 46]
1 µg/mL: MIC [5, 36] | MIC [5, 38]
> 8 µg/mL: MIC [3, 16] | MIC [3, 18] | MIC [3, 20] | MIC [3, 21] | MIC [3, 23] | MIC [3, 24] | MIC [3, 25] | MIC [3, 27] | MIC [3, 28] | MIC [3, 31] | MIC ([4]; isolate 14, Other) | MIC ([4]; isolate 15, Other) | MIC [5, 35] | MIC ([6]; isolate 18, M. chelonae) | MIC ([6]; isolate 19, M. chelonae) | MIC ([6]; isolate 20, M. chelonae) | MIC ([6]; isolate 21, M. chelonae) | MIC ([6]; isolate 22, M. chelonae) | MIC90 [7] | MIC [8, 50] | MIC [8, 51] | MIC [9, 55] | MIC [9, 57] | MIC [9, 58]
4 µg/mL: MIC [3, 19] | MIC [3, 26] | MIC [3, 29] | MIC [3, 32] | MIC ([4]; isolate 13, Other) | MIC [5, 37] | MIC [5, 39]
8 µg/mL: MIC [1] | MIC [3, 17] | MIC [3, 22] | MIC [3, 30] | MIC [5, 40] | MIC50 [7] | MIC [8, 52]
2 µg/mL: MIC [8, 54]
≤ 0.5 µg/mL: MIC [2, 14] | MIC [2, 15] | MIC [5, 33] | MIC [5, 34] | MIC [5, 41] | MIC [5, 42] | MIC [5, 43] | MIC [5, 44] | MIC [8, 45] | MIC [8, 47] | MIC [8, 48] | MIC [8, 49] | MIC [8, 53] | MIC [9, 56]

CN(C)c1cc(CNCC(C)(C)C)c(O)c2c1C[C@H]1C[C@H]3[C@H](N(C)C)C(O)=C(C(N)=O)C(=O)[C@@]3(O)C(O)=C1C2=O [OMC]
0.06 µg/mL: MIC [2, 14] | MIC [3, 32] | MIC [5, 36]
0.5 µg/mL: MIC [2, 15] | MIC90 [7] | MIC [8, 48] | MIC [8, 50] | MIC [8, 51] | MIC [9, 55] | MIC [9, 57] | MIC [9, 58]
0.12 µg/mL: MIC [3, 19] | MIC [3, 21] | MIC [3, 22] | MIC [3, 23] | MIC [3, 24] | MIC [3, 25] | MIC [3, 26] | MIC [3, 27] | MIC [3, 29] | MIC [3, 30] | MIC [5, 33] | MIC [5, 34] | MIC [5, 35] | MIC [5, 37] | MIC [5, 40] | MIC [5, 42] | MIC [5, 43] | MIC [5, 44] | MIC ([6]; isolate 18, M. chelonae) | MIC ([6]; isolate 20, M. chelonae) | MIC ([6]; isolate 21, M. chelonae)
0.25 µg/mL: MIC [3, 16] | MIC [3, 17] | MIC [3, 18] | MIC [3, 20] | MIC [3, 28] | MIC [3, 31] | MIC [5, 38] | MIC [5, 39] | MIC [5, 41] | MIC ([6]; isolate 19, M. chelonae) | MIC ([6]; isolate 22, M. chelonae) | MIC50 [7] | MIC [8, 45] | MIC [8, 46] | MIC [8, 54] | MIC [9, 56]
1 µg/mL: MIC [8, 47] | MIC [8, 49] | MIC [8, 52] | MIC [8, 53]
> 16 µg/mL: MIC ([10]; isolate 1, MAC) | MIC ([10]; isolate 2, MAC) | MIC ([10]; isolate 3, MAC) | MIC [1] | MIC ([11]; isolate 4, MAC) | MIC ([11]; isolate 5, MAC) | MIC ([12]; isolate 6, MAC) | MIC ([12]; isolate 7, MAC) | MIC ([12]; isolate 8, MAC) | MIC ([12]; isolate 9, MAC) | MIC ([12]; isolate 10, MAC) | MIC ([4]; isolate 13, Other) | MIC ([4]; isolate 14, Other) | MIC ([4]; isolate 15, Other) | MIC50 ([13]; read-out: MIC50) | MIC90 ([13]; read-out: MIC90)
